Measured values reported in PMC7565091, “Synthesis and Inhibitory Studies of Phosphonic Acid Analogues of Homophenylalanine and Phenylalanine towards Alanyl Aminopeptidases” (Biomolecules, 2020).
Like-named read-outs stand apart in the source and are kept apart here.

Assays:
[1] = molecular target: T1, Recombinant human alanine aminopeptidase (hAPN, EC 3.4.11.2) (Homo sapiens, UniProt P15144); test: Fluorogenic (Ala-AMC) enzyme inhibition assay, hAPN; format: biochemical; conditions: for Ki: racemic compounds, substrate Ala-AMC 50 µM, 50 mM Tris-HCl pH 7.00, 37 °C
T1 construct: purchased R&D System (Minneapolis, MN)

[2] = molecular target: T2, porcine kidney alanine aminopeptidase (pAPN, EC 3.4.11.2) (Sus scrofa, UniProt P15145); test: Fluorogenic (Ala-AMC) enzyme inhibition assay, pAPN; format: biochemical; conditions: for Ki: racemic compounds, substrate Ala-AMC 100 µM, 50 mM Tris-HCl pH 7.20, 37 °C
T2 construct: porcine kidney alanine aminopeptidase (pAPN, EC 3.4.11.2); purchased Sigma Aldrich (Poznan, Poland); host or cells: porcine kidney (tissue-derived)
T2 sequence (P15145 1-963): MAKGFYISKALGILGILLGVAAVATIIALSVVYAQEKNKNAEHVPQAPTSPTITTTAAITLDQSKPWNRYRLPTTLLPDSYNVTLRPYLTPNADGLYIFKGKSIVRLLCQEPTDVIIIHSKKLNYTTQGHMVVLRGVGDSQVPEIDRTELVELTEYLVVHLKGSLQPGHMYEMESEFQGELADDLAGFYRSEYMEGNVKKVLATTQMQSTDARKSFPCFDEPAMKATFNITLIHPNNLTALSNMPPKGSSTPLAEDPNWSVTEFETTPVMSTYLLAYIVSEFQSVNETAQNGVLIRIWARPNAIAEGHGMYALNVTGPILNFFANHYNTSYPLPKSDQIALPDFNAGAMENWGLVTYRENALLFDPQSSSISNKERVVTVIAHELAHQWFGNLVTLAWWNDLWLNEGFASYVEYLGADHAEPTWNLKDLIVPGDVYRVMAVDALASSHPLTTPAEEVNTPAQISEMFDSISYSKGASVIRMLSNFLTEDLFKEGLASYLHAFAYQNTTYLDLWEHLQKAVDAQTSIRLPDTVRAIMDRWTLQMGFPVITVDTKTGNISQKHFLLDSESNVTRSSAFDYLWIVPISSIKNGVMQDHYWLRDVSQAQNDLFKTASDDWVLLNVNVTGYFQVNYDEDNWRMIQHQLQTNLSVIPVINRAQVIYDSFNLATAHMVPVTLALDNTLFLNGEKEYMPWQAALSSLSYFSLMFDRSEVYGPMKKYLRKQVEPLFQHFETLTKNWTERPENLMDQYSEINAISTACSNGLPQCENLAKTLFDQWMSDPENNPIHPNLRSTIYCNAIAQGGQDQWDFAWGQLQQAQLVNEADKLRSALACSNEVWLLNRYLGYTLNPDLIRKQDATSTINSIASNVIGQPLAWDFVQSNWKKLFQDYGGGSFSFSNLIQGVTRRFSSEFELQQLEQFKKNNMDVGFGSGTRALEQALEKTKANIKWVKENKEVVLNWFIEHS

[3] = molecular target: T1, Recombinant human alanine aminopeptidase (hAPN, EC 3.4.11.2); conditions: data from previous studies; cited from earlier work
[4] = molecular target: T2, porcine kidney alanine aminopeptidase (pAPN, EC 3.4.11.2); conditions: data from previous studies; cited from earlier work

T1 sequence (P15144 whole entry): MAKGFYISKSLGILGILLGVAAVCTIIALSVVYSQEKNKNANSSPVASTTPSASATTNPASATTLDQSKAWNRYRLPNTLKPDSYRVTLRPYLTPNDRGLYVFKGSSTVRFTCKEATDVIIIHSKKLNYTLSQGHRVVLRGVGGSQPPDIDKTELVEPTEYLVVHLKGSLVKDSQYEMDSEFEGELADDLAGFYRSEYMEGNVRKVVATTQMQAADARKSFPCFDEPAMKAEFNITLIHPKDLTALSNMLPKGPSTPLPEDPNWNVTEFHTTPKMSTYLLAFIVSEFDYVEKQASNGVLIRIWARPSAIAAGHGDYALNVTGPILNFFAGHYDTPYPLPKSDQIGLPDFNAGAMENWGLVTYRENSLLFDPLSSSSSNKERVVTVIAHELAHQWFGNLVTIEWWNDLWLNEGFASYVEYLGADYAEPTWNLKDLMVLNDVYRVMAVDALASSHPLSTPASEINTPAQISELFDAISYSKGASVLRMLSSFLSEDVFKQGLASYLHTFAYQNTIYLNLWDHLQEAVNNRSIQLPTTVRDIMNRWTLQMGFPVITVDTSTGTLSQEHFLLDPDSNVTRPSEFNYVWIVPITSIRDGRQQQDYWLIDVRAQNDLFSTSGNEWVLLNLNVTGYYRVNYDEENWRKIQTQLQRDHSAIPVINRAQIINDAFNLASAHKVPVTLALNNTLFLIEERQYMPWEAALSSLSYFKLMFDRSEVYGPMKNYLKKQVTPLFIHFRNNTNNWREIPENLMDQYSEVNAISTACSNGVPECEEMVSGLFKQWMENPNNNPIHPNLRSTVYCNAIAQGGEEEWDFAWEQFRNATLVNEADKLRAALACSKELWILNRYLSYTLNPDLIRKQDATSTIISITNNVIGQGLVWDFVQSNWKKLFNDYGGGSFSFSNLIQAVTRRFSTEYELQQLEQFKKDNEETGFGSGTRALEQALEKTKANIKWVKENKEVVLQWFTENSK

Row | Compound | Ki [1] | melting point | Ki [2] | other results
1 | NC(CCc1ccc(F)cc1)P(=O)(O)O (stereo not shown) [Compound 15d, 1-Amino-3-(4-Fluorophenyl)propylphosphonic Acid] | 249 ± 25 nM | 303 to 305 °C | 1690 ± 810 nM | –
2 | NC(CCc1ccc(F)c(F)c1)P(=O)(O)O (stereo not shown) [Compound 15f, 1-Amino-3-(3,4-Difluorophenyl)propylphosphonic Acid] | 149 ± 11 nM | 292 to 293 °C | 1020 ± 300 nM | –
3 | NC(Cc1cc(F)ccc1Br)P(=O)(O)O (stereo not shown) [Compound 17b] | 41700 ± 7400 nM | – | 379000 ± 126000 nM | –
4 | NC(CCc1ccccc1F)P(=O)(O)O (stereo not shown) [Compound 15b, 1-Amino-3-(2-Fluorophenyl)propylphosphonic Acid] | 506 ± 38 nM | 292 to 294 °C | 12700 ± 800 nM | –
5 | NC(CCc1ccccc1C(F)(F)F)P(=O)(O)O (stereo not shown) [Compound 15h, 1-Amino-3-(2-Trifluoromethylphenyl)propylphosphonic Acid] | 804 ± 122 nM | 244 to 246 °C | 7490 ± 580 nM | –
6 | NC(Cc1ccc(F)c(Br)c1)P(=O)(O)O (stereo not shown) [Compound 17c, 1-Amino-3-(3-Bromo-4-Fluorophenyl)ethylphosphonic Acid] | 248 ± 24 nM | – | 2220 ± 140 nM | –
7 | 1-Amino-3-(4-Bromo-3-Fluorophenyl)ethylphosphonic Acid [Compound 17e] | 670 ± 49 nM | – | 4230 ± 440 nM | –
8 | NC(CCc1ccc(C(F)(F)F)cc1)P(=O)(O)O (stereo not shown) [Compound 15g, 1-Amino-3-(4-Trifluoromethylphenyl)propylphosphonic Acid] | 347 ± 62 nM | 295 to 296 °C | 976 ± 99 nM | –
9 | NC(CCc1ccc(F)cc1F)P(=O)(O)O (stereo not shown) [Compound 15e, 1-Amino-3-(2,4-Difluorophenyl)propylphosphonic Acid] | 661 ± 105 nM | 304 to 306 °C | 1710 ± 460 nM | –
10 | Cc1cc(=O)oc2cc(NC(=O)[C@H](C)N)ccc12 [Ala-AMC, L-alanine-4-methylcoumaryl-7-amide, reference compound] | – | – | – | Km ([1]; substrate constant, determined analogously to the literature [23], read-out: Km towards Ala-AMC, hAPN): 73 µM; Km ([2]; substrate constant, determined analogously to the literature [23], read-out: Km towards Ala-AMC, pAPN): 90 µM
11 | NC(CCc1cccc(F)c1)P(=O)(O)O (stereo not shown) [Compound 15c, 1-Amino-3-(3-Fluorophenyl)propylphosphonic Acid] | 129 ± 25 nM | 292 to 294 °C | 2630 ± 180 nM | times better inhibitor than 15a ([1]; ratio of Ki values versus compound 15a, the text says both aminopeptidases, the factor matches hAPN): 5
12 | 1-Amino-3-(4-Bromo-2-Fluorophenyl)ethylphosphonic Acid [Compound 17d] | 7360 ± 210 nM | – | 82500 ± 2000 nM | –
13 | NC(Cc1ccc(Cl)cc1F)P(=O)(O)O (stereo not shown) [Compound 17o] | – | – | – | Ki [3]: 17800 ± 2090 nM; Ki [4]: 160000 ± 11000 nM
14 | NC(Cc1ccc(Cl)c(F)c1)P(=O)(O)O (stereo not shown) [Compound 17s] | – | – | – | Ki [3]: 1010 ± 160 nM; Ki [4]: 14800 ± 900 nM
15 | 1-Amino-3-(2-Bromo-4-Fluorophenyl)ethylphosphonic Acid [Compound 17a] | 14000 ± 400 nM | – | 70000 ± 6600 nM | –
16 | NC(Cc1ccc(F)c(Cl)c1)P(=O)(O)O (stereo not shown) [Compound 17t] | – | – | – | Ki [3]: 542 ± 152 nM; Ki [4]: 6930 ± 780 nM
